According to ChEMBL document CHEMBL3880421, “Indazole compounds and pharmaceutical compositions for inhibiting protein kinases, and methods for their use” (2003):

Columns and labels:
[1] = Antiproliferative activity against VEGF-stimulated HUVEC cells assessed as reduction in cell viability at 2 nM preincubated for 1 hr followed by addition of VEGF measured after 72 hrs by MTT assay; type: functional; conditions: Homo sapiens
[2] = Antiproliferative activity against VEGF-stimulated HUVEC cells assessed as reduction in cell viability at 0.5 nM preincubated for 1 hr followed by addition of VEGF measured after 72 hrs by MTT assay; type: functional; conditions: Homo sapiens

Row | Structure (SMILES) | inhibition at 0.002 µM [1] [%] | inhibition at 0.0005 µM [2] [%]
1 | O=C(Nc1nc[nH]n1)c1ccccc1Nc1ccc2c(/C=C/c3ccccn3)n[nH]c2c1 | 22 | 19
2 | COCC(C)NC(=O)c1ccccc1Nc1ccc2c(/C=C/c3ccccn3)n[nH]c2c1 (centres undefined) | 32 | 18
3 | O=C(NN1CCOCC1)c1ccccc1Nc1ccc2c(/C=C/c3ccccn3)n[nH]c2c1 | 53 | 1
4 | CN(C)CCCNC(=O)c1ccccc1Nc1ccc2c(/C=C/c3ccccn3)n[nH]c2c1 | 1 | 6
5 | CN(C)CC(=O)NNC(=O)c1ccccc1Nc1ccc2c(/C=C/c3ccccn3)n[nH]c2c1 | 16 | 41
6 | O=C(NCc1ccccn1)c1ccccc1Nc1ccc2c(/C=C/c3ccccn3)n[nH]c2c1 | 43 | 6
7 | COC(=O)NNC(=O)c1ccccc1Nc1ccc2c(/C=C/c3ccccn3)n[nH]c2c1 | 21 | 8
8 | CC1(C)CC(NC(=O)c2ccccc2Nc2ccc3c(/C=C/c4ccccn4)n[nH]c3c2)C(C)(C)N1O (centres undefined) | 8 | 15
9 | CC(C)CNC(=O)c1ccccc1Nc1ccc2c(/C=C/c3ccccn3)n[nH]c2c1 | 29 to 36 | 4 to 31
10 | CC(C)CC(C)NC(=O)c1ccccc1Nc1ccc2c(/C=C/c3ccccn3)n[nH]c2c1 (centres undefined) | 50 | 55
11 | O=C(NNC(=O)c1ccccc1Nc1ccc2c(/C=C/c3ccccn3)n[nH]c2c1)c1cccs1 | 90 | 65
12 | CC1CCC(NC(=O)c2ccccc2Nc2ccc3c(/C=C/c4ccccn4)n[nH]c3c2)CC1 (centres undefined) | 42 | -11
13 | CC(C)CCCC(C)NC(=O)c1ccccc1Nc1ccc2c(/C=C/c3ccccn3)n[nH]c2c1 (centres undefined) | 32 | 20
14 | O=C(Cc1ccccc1)NNC(=O)c1ccccc1Nc1ccc2c(/C=C/c3ccccn3)n[nH]c2c1 | 66 | 31
15 | N#CC1CCC(CNC(=O)c2ccccc2Nc2ccc3c(/C=C/c4ccccn4)n[nH]c3c2)CC1 (centres undefined) | 66 | 36
16 | O=C(NCCCN1CCCCC1)c1ccccc1Nc1ccc2c(/C=C/c3ccccn3)n[nH]c2c1 | 7 | 16
17 | O=C(NCCc1ccccn1)c1ccccc1Nc1ccc2c(/C=C/c3ccccn3)n[nH]c2c1 | 91 | 49
18 | O=C(NNCC(F)(F)F)c1ccccc1Nc1ccc2c(/C=C/c3ccccn3)n[nH]c2c1 | 42 | 16
19 | Cc1ccc(CNC(=O)c2ccccc2Nc2ccc3c(/C=C/c4ccccn4)n[nH]c3c2)cc1 | 92 | 20
20 | COCCCNC(=O)c1ccccc1Nc1ccc2c(/C=C/c3ccccn3)n[nH]c2c1 | 31 | 26
21 | CC(CO)NC(=O)c1ccccc1Nc1ccc2c(/C=C/c3ccccn3)n[nH]c2c1 (centres undefined) | 28 | 19
22 | CCCCCCNC(=O)c1ccccc1Nc1ccc2c(/C=C/c3ccccn3)n[nH]c2c1 | 90 | 21
23 | O=C(NCCS(=O)(=O)O)c1ccccc1Nc1ccc2c(/C=C/c3ccccn3)n[nH]c2c1 | 21 | 16

Row | Structure (SMILES) | inhibition at 0.002 µM [1] [%] | inhibition at 0.0005 µM [2] [%]
24 | CCCCN(CCCC)CCCNC(=O)c1ccccc1Nc1ccc2c(/C=C/c3ccccn3)n[nH]c2c1 | 10 | 32
25 | CCCC(C)NC(=O)c1ccccc1Nc1ccc2c(/C=C/c3ccccn3)n[nH]c2c1 (centres undefined) | 92 | 29
26 | CC(CCc1ccccc1)NC(=O)c1ccccc1Nc1ccc2c(/C=C/c3ccccn3)n[nH]c2c1 (centres undefined) | 40 | 50
27 | O=C(NCCc1c[nH]cn1)c1ccccc1Nc1ccc2c(/C=C/c3ccccn3)n[nH]c2c1 | -32 | 23
28 | O=C(NCCCN1CCCC1)c1ccccc1Nc1ccc2c(/C=C/c3ccccn3)n[nH]c2c1 | 2 | 20
29 | CNC(=O)CNC(=O)c1ccccc1Nc1ccc2c(/C=C/c3ccccn3)n[nH]c2c1 | 26 | -1
30 | CC1CC(NC(=O)c2ccccc2Nc2ccc3c(/C=C/c4ccccn4)n[nH]c3c2)CC(C)(C)C1 (centres undefined) | 31 | 25
31 | CC(CN(C)C)NC(=O)c1ccccc1Nc1ccc2c(/C=C/c3ccccn3)n[nH]c2c1 (centres undefined) | 17 | 23
32 | Cc1cc(C(=O)NNC(=O)c2ccccc2Nc2ccc3c(/C=C/c4ccccn4)n[nH]c3c2)[nH]n1 | 39 | 26
33 | CCN(CC)CCCC(C)NC(=O)c1ccccc1Nc1ccc2c(/C=C/c3ccccn3)n[nH]c2c1 (centres undefined) | 15 | 3
34 | CCOCCNC(=O)c1ccccc1Nc1ccc2c(/C=C/c3ccccn3)n[nH]c2c1 | 75 | 53
35 | O=C(NC1CCCCC1)c1ccccc1Nc1ccc2c(/C=C/c3ccccn3)n[nH]c2c1 | 76 | 12
36 | C[C@H](CO)NC(=O)c1ccccc1Nc1ccc2c(/C=C/c3ccccn3)n[nH]c2c1 | 20 | 13
37 | O=C(NCCN1CCNCC1)c1ccccc1Nc1ccc2c(/C=C/c3ccccn3)n[nH]c2c1 | 12 | 37
38 | O=C(NCCc1ccccc1)c1ccccc1Nc1ccc2c(/C=C/c3ccccn3)n[nH]c2c1 | 99 | 15
39 | CC(C)N(CCNC(=O)c1ccccc1Nc1ccc2c(/C=C/c3ccccn3)n[nH]c2c1)C(C)C | 15 | 37
40 | CN(C)NC(=O)c1ccccc1Nc1ccc2c(/C=C/c3ccccn3)n[nH]c2c1 | 20 | 31
41 | CC(C)c1ccc(CNC(=O)c2ccccc2Nc2ccc3c(/C=C/c4ccccn4)n[nH]c3c2)cc1 | 51 | 23
42 | Nc1nnc(NC(=O)c2ccccc2Nc2ccc3c(/C=C/c4ccccn4)n[nH]c3c2)[nH]1 | 41 | -6
43 | CCn1nccc1NC(=O)c1ccccc1Nc1ccc2c(/C=C/c3ccccn3)n[nH]c2c1 | 2 | 26
44 | CCC(CC)NC(=O)c1ccccc1Nc1ccc2c(/C=C/c3ccccn3)n[nH]c2c1 | 14 | 25
45 | CCCCC(CC)NC(=O)c1ccccc1Nc1ccc2c(/C=C/c3ccccn3)n[nH]c2c1 (centres undefined) | 30 | 31
46 | C[N+]12CC[C@@H]1C(NC(=O)c1ccccc1Nc1ccc3c(/C=C/c4ccccn4)n[nH]c3c1)C2 (some centres undefined) | -9 | 15

Row | Structure (SMILES) | inhibition at 0.002 µM [1] [%] | inhibition at 0.0005 µM [2] [%]
47 | O=C(NCCCCc1ccccc1)c1ccccc1Nc1ccc2c(/C=C/c3ccccn3)n[nH]c2c1 | 67 | 51
48 | O=C(NCCN1CCOCC1)c1ccccc1Nc1ccc2c(/C=C/c3ccccn3)n[nH]c2c1 | 22 | 28
49 | CCN1CC(NC(=O)c2ccccc2Nc2ccc3c(/C=C/c4ccccn4)n[nH]c3c2)CN1CC | -19 | 2
50 | CC(C)(C)c1cc(NC(=O)c2ccccc2Nc2ccc3c(/C=C/c4ccccn4)n[nH]c3c2)no1 | 4 | 15
51 | O=C(NNCCO)c1ccccc1Nc1ccc2c(/C=C/c3ccccn3)n[nH]c2c1 | 18 | 33
52 | CN1CCN(NC(=O)c2ccccc2Nc2ccc3c(/C=C/c4ccccn4)n[nH]c3c2)CC1 | -1 | 19 to 38
53 | O=C(NCCc1cccnc1)c1ccccc1Nc1ccc2c(/C=C/c3ccccn3)n[nH]c2c1 | 61 | 23
54 | O=C(NNc1ccccn1)c1ccccc1Nc1ccc2c(/C=C/c3ccccn3)n[nH]c2c1 | 35 to 92 | 19 to 32
55 | O=C(NCCCO)c1ccccc1Nc1ccc2c(/C=C/c3ccccn3)n[nH]c2c1 | 23 to 31 | 8 to 24
56 | CN(CCCNC(=O)c1ccccc1Nc1ccc2c(/C=C/c3ccccn3)n[nH]c2c1)c1ccccc1 | 25 | 18
57 | Cc1ccc(N(C)NC(=O)c2ccccc2Nc2ccc3c(/C=C/c4ccccn4)n[nH]c3c2)nn1 | -3 | 18
58 | Cc1ccc(CNC(=O)c2ccccc2Nc2ccc3c(/C=C/c4ccccn4)n[nH]c3c2)o1 | 96 | 56
59 | O=C(NCCCCO)c1ccccc1Nc1ccc2c(/C=C/c3ccccn3)n[nH]c2c1 | 40 | 35
60 | O=C(NOCc1ccccc1)c1ccccc1Nc1ccc2c(/C=C/c3ccccn3)n[nH]c2c1 | 101 to 111 | 70 to 74
61 | CCOC(CNC(=O)c1ccccc1Nc1ccc2c(/C=C/c3ccccn3)n[nH]c2c1)OCC | 47 | 11
62 | O=C(NCCOc1ccccc1)c1ccccc1Nc1ccc2c(/C=C/c3ccccn3)n[nH]c2c1 | 73 | 16
63 | CCC(C)NC(=O)c1ccccc1Nc1ccc2c(/C=C/c3ccccn3)n[nH]c2c1 (centres undefined) | 58 | 29
64 | NC(=O)C[C@@H](NC(=O)c1ccccc1Nc1ccc2c(/C=C/c3ccccn3)n[nH]c2c1)C(N)=O | 15 | 21
65 | NS(=O)(=O)c1ccc(CNC(=O)c2ccccc2Nc2ccc3c(/C=C/c4ccccn4)n[nH]c3c2)cc1 | 13 | 1
66 | Cc1csc(NC(=O)c2ccccc2Nc2ccc3c(/C=C/c4ccccn4)n[nH]c3c2)n1 | 95 | 15
67 | O=C(O)CCNC(=O)c1ccccc1Nc1ccc2c(/C=C/c3ccccn3)n[nH]c2c1 | 20 | 4
